In article PMC10044725, “Antioxidant, Anti-Inflammatory and Anti-Diabetic Activities of Tectona grandis Methanolic Extracts, Fractions, and Isolated Compounds” (Antioxidants, 2023):
Marks after values point to notes of the source that are not given here.

How the values were obtained:
[1] = Ferric reducing antioxidant power (FRAP) assay; conditions: compounds at 50 μM; Trolox equivalent
Method: The FRAP assay was determined in accordance with the instructions for the FRAP kit. The total antioxidant activity values were estimated using the Trolox equivalent antioxidant capacity test. Initially, the detection concentration of methanolic extract and different fractions was 80 μg/mL, and the detection concentration of compounds (1–23) was 50 μM. Then, 190 μL of FRAP working reagent was mixed with 10 μL sample and incubated at room temperature for 20 min. The absorbance was then measured using a microplate reader at 593 nm, and the scavenging activity was calculated according to Equation (3). The blank control group used DMSO to replace the sample. […] The analysis was performed in triplicates, 0.8054, 0.0134 was a constant.

[2] = DPPH free radical scavenging assay; conditions: isolated compounds; half scavenging concentration; read-out: DPPH Assay SC50
Method: The DPPH free radical scavenging activities of T. grandis methanolic extract, different fractions and its compounds were conducted according to Dr. Yang et al.. […] The absorbance was measured using a microplate reader at 517 nm, and ascorbic acid was used as a positive control. The DPPH scavenging activity was calculated according to the following formula: Scavenging activity (%) = [1 − (A1 − A2)/(A3 − A4)] × 100% (1) where A1 is the OD value of the tested samples, A2 is the OD value of the sample control, A3 is the OD value of the negative control and A4 is the OD value of the blank control. The analysis was performed in triplicates and the results were described as SC50 values.

[3] = system: α-glucosidase; assay: α-Glucosidase inhibition assay (pNPG); format: biochemical
Method: The inhibitory effect on α-glucosidase was measured according to the previous report method with slight modifications. The 20 mM sample dissolved in DMSO was diluted to 50 μM in PBS, 10 μL sample was mixed with 50 μL of 0.1 μ/mL α-glucosidase solution in 0.1 M phosphate buffer (pH 6.5) in a 96-well microplate and 10 μL PBS was used as a blank control. The mixture was incubated at 37 °C for 10 min before adding 40 µL of 5 mM 4-nitrophenyl-α-D-glucopyranoside to each well. After 30 min of incubation at 37 °C, the reaction was terminated by adding 50 μL of 0.1 M Na2CO3 to this mixture. The released 4-nitrophenol absorbance measurements were carried out using a microplate reader (SpectraMax190, USA) at 405 nm.

SMILES: O=C(O)c1cc(O)c(O)c(O)c1 [Compound 23, gallic acid]
- FRAP Assay [1]: 1.03 ± 0.01 ^a mmol Trolox/L
- EC50 [2]: 320 ± 70 nM
- Inhibitory Rate (%) ([3]; at a concentration of 50 µM): 21.89 ± 3.03 ^c %
- IC50 ([3]; compounds): > 50000 nM
